Laboratory results reported in ChEMBL document CHEMBL1201861, “Genomics of Drug Sensitity in Cancer screening data, Wellcome Trust Sanger Institute”.

How the values were obtained:
NCI-H1793 = assay: cells; assay type: functional, cell-based, Homo sapiens; details: Homo sapiens, NCI-H1793;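 further: cell growth inhibition, read out by a cell viability assay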
Description: SANGER: Inhibition of human NCI-H1793 cell growth in a cell viability assay.

RD = assay: cells; assay type: functional, cell-based, Homo sapiens; details: Homo sapiens, RD
Description: SANGER: Inhibition of human RD cell growth in a cell viability assay.

SIG-M5 = assay: cells; assay type: functional, cell-based, Homo sapiens; details: Homo sapiens, SIG-M5;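 further: cell viability assay read-out, measuring how strongly growth of cultured human SIG-M5 cells is inhibited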
Description: SANGER: Inhibition of human SIG-M5 cell growth in a cell viability assay.

LK-2 = assay: cells; assay type: functional, cell-based, Homo sapiens; details: Homo sapiens, LK-2;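 further: growth inhibition of LK-2 cells, read out with a viability assay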
Description: SANGER: Inhibition of human LK-2 cell growth in a cell viability assay.

LU-165 = assay: cells; assay type: functional, cell-based, Homo sapiens; details: Homo sapiens, LU-165
Description: SANGER: Inhibition of human LU-165 cell growth in a cell viability assay.

MKN-28 = assay: cells; assay type: functional, cell-based, Homo sapiens; details: Homo sapiens, MKN-28;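 further: cell viability assay read-out, IC50 reflects suppression of growth of human MKN-28 cells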
Description: SANGER: Inhibition of human MKN28 cell growth in a cell viability assay.

DBTRG-05MG = assay: cells; assay type: functional, cell-based, Homo sapiens; details: Homo sapiens, DBTRG-05MG;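 further: cell viability assay measuring growth inhibition of human DBTRG-05MG cells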
Description: SANGER: Inhibition of human DBTRG-05MG cell growth in a cell viability assay.

NCI-H2030 = assay: cells; assay type: functional, cell-based, Homo sapiens; details: Homo sapiens, NCI-H2030;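 further: growth inhibition of human NCI-H2030 cells, read out by a cell viability assay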
Description: SANGER: Inhibition of human NCI-H2030 cell growth in a cell viability assay.

A673 = assay: cells; assay type: functional, cell-based, Homo sapiens; details: Homo sapiens, A673;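 further: growth inhibition of human A673 cells, read out through a cell viability assay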
Description: SANGER: Inhibition of human A673 cell growth in a cell viability assay.

AU565 = assay: cells; assay type: functional, cell-based, Homo sapiens; details: Homo sapiens, AU565;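 further: cell viability assay measuring growth inhibition of human AU565 cells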
Description: SANGER: Inhibition of human AU565 cell growth in a cell viability assay.

NCI-H345 = assay: cells; assay type: functional, cell-based, Homo sapiens; details: Homo sapiens, NCI-H345;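 further: growth inhibition of NCI-H345 cells measured with a cell viability assay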
Description: SANGER: Inhibition of human NCI-H345 cell growth in a cell viability assay.

CAKI-1 = assay: cells; assay type: functional, cell-based, Homo sapiens; details: Homo sapiens, CAKI-1;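 further: growth inhibition of CAKI-1 cells, measured by a cell viability assay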
Description: SANGER: Inhibition of human CAKI-1 cell growth in a cell viability assay.

NCI-H460 = assay: cells; assay type: functional, cell-based, Homo sapiens; details: Homo sapiens, NCI-H460;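 further: cell viability assay scoring growth inhibition of human NCI-H460 cells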
Description: SANGER: Inhibition of human NCI-H460 cell growth in a cell viability assay.

GDM-1 = assay: cells; assay type: functional, cell-based, Homo sapiens; details: Homo sapiens, GDM-1;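 further: cell viability readout used to measure growth inhibition of human GDM-1 cells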
Description: SANGER: Inhibition of human GDM-1 cell growth in a cell viability assay.

KYSE-70 cell line = assay: cells; assay type: functional, cell-based, Homo sapiens; details: Homo sapiens, KYSE-70;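 further: cell viability assay read-out, with IC50 expressing suppression of KYSE-70 cell growth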
Description: SANGER: Inhibition of human KYSE-70 cell growth in a cell viability assay.

NCI-H650 = assay: cells; assay type: functional, cell-based, Homo sapiens; details: Homo sapiens, NCI-H650;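 further: growth inhibition of NCI-H650 cells, read out by a viability assay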
Description: SANGER: Inhibition of human NCI-H650 cell growth in a cell viability assay.

C3A = assay: cells; assay type: functional, cell-based, Homo sapiens; details: Homo sapiens, C3A;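 further: growth inhibition of C3A human cells, quantified with a cell viability readout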
Description: SANGER: Inhibition of human C3A cell growth in a cell viability assay.

SW1088 = assay: cells; assay type: functional, cell-based, Homo sapiens; details: Homo sapiens, SW1088;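 further: growth inhibition of human SW1088 cells, read out by a cell viability assay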
Description: SANGER: Inhibition of human SW1088 cell growth in a cell viability assay.

SCC-25 = assay: cells; assay type: functional, cell-based, Homo sapiens; details: Homo sapiens, SCC-25;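 further: growth inhibition of SCC-25 cells, measured with a cell viability assay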
Description: SANGER: Inhibition of human SCC-25 cell growth in a cell viability assay.

U2OS = assay: cells; assay type: functional, cell-based, Homo sapiens, U-2-OS; details: Homo sapiens, U2OS;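 further: growth inhibition of human U-2-OS cells, determined with a cell viability assay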
Description: SANGER: Inhibition of human U-2-OS cell growth in a cell viability assay.

Daoy = assay: cells; assay type: functional, cell-based, Homo sapiens; details: Homo sapiens, Daoy;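 further: daoy cell growth inhibition, read out as cell viability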
Description: SANGER: Inhibition of human Daoy cell growth in a cell viability assay.

NCI-H524 = assay: cells; assay type: functional, cell-based, Homo sapiens; details: Homo sapiens, NCI-H524;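 further: growth inhibition of human NCI-H524 cells, read out through a cell viability assay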
Description: SANGER: Inhibition of human NCI-H524 cell growth in a cell viability assay.

SCLC-21H = assay: cells; assay type: functional, cell-based, Homo sapiens; details: Homo sapiens, SCLC-21H;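 further: growth inhibition of cultured human SCLC-21H cells, read out with a cell viability assay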
Description: SANGER: Inhibition of human SCLC-21H cell growth in a cell viability assay.

SW13 = assay: cells; assay type: functional, cell-based, Homo sapiens; details: Homo sapiens, SW13;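 further: IC50 is inhibition of SW13 cell growth, read out with a cell viability assay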
Description: SANGER: Inhibition of human SW13 cell growth in a cell viability assay.

SK-N-AS = assay: cells; assay type: functional, cell-based, Homo sapiens; details: Homo sapiens, SK-N-AS;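 further: growth inhibition of human SK-N-AS cells, measured with a cell viability assay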
Description: SANGER: Inhibition of human SK-N-AS cell growth in a cell viability assay.

TE-15 = assay: cells; assay type: functional, cell-based, Homo sapiens; details: Homo sapiens, TE-15;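 further: cell viability readout of growth inhibition in TE-15 cells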
Description: SANGER: Inhibition of human TE-15 cell growth in a cell viability assay.

NCI-H187 = assay: cells; assay type: functional, cell-based, Homo sapiens; details: Homo sapiens, NCI-H187;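 further: growth inhibition of NCI-H187 cells, read out as cell viability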
Description: SANGER: Inhibition of human NCI-H187 cell growth in a cell viability assay.

SKG-IIIa = assay: cells; assay type: functional, cell-based, Homo sapiens; details: Homo sapiens, SKG-IIIa;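 further: cell growth inhibition, read out with a cell viability assay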
Description: SANGER: Inhibition of human SKG-IIIa cell growth in a cell viability assay.

SW626 = assay: cells; assay type: functional, cell-based, Homo sapiens; details: Homo sapiens, SW626;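 further: growth inhibition of SW626 cells, measured with a cell viability assay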
Description: SANGER: Inhibition of human SW626 cell growth in a cell viability assay.

CAL-12T = assay: cells; assay type: functional, cell-based, Homo sapiens; details: Homo sapiens, CAL-12T;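 further: growth inhibition of human CAL-12T cells, read out with a cell viability assay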
Description: SANGER: Inhibition of human CAL-12T cell growth in a cell viability assay.

L-540 = assay: cells; assay type: functional, cell-based, Homo sapiens; details: Homo sapiens, L-540;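 further: growth inhibition of the human L-540 cell line, read out with a viability assay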
Description: SANGER: Inhibition of human L-540 cell growth in a cell viability assay.

T-24 = assay: cells; assay type: functional, cell-based, Homo sapiens; details: Homo sapiens, T-24;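 further: growth inhibition of T-24 cells, read out with a cell viability assay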
Description: SANGER: Inhibition of human T-24 cell growth in a cell viability assay.

OVCAR-5 = assay: cells; assay type: functional, cell-based, Homo sapiens; details: Homo sapiens, OVCAR-5;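 further: growth inhibition of human OVCAR-5 cells, read out with a cell viability assay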
Description: SANGER: Inhibition of human OVCAR-5 cell growth in a cell viability assay.

LU-99A = assay: cells; assay type: functional, cell-based, Homo sapiens; details: Homo sapiens, LU-99A;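 further: growth inhibition of LU-99A cells, read out with a cell viability assay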
Description: SANGER: Inhibition of human LU-99A cell growth in a cell viability assay.

BT-20 = assay: cells; assay type: functional, cell-based, Homo sapiens; details: Homo sapiens, BT-20;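 further: cell viability assay measuring suppression of growth in human BT-20 cells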
Description: SANGER: Inhibition of human BT-20 cell growth in a cell viability assay.

BC1 cell line = assay: SANGER: Inhibition of human BC-1 cell growth in a cell viability assay.; assay type: functional, cell-based; details: Homo sapiens, BC1
ARH-77 = assay: cells; assay type: functional, cell-based, Homo sapiens; details: Homo sapiens, ARH-77;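 further: growth inhibition of ARH-77 cells, read out by a cell viability assay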
Description: SANGER: Inhibition of human ARH-77 cell growth in a cell viability assay.

CMK = assay: cells; assay type: functional, cell-based, Homo sapiens; details: Homo sapiens, CMK;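 further: growth inhibition of CMK cells, read out as cell viability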
Description: SANGER: Inhibition of human CMK cell growth in a cell viability assay.

GCT = assay: cells; assay type: functional, cell-based, Homo sapiens; details: Homo sapiens, GCT;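 further: GCT cell line proliferation inhibition, read out with a cell viability assay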
Description: SANGER: Inhibition of human GCT cell growth in a cell viability assay.

SJRH30 = assay: cells; assay type: functional, cell-based, Homo sapiens; details: Homo sapiens, SJRH30;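 further: growth inhibition of human SJRH30 cells, read out with a cell viability assay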
Description: SANGER: Inhibition of human SJRH30 cell growth in a cell viability assay.

BC-3 = assay: cells; assay type: functional, cell-based, Homo sapiens; details: Homo sapiens, BC-3;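 further: cell viability assay measuring growth inhibition of human BC-3 cells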
Description: SANGER: Inhibition of human BC-3 cell growth in a cell viability assay.

M059J = assay: cells; assay type: functional, cell-based, Homo sapiens; details: Homo sapiens, M059J;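 further: growth inhibition of M059J cells, read out with a cell viability assay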
Description: SANGER: Inhibition of human M059J cell growth in a cell viability assay.

SW780 = assay: cells; assay type: functional, cell-based, Homo sapiens; details: Homo sapiens, SW780;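 further: growth inhibition of the cells, read out with a cell viability assay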
Description: SANGER: Inhibition of human SW780 cell growth in a cell viability assay.

PANC-03-27 = assay: cells; assay type: functional, cell-based, Homo sapiens; details: Homo sapiens, PANC-03-27
Description: SANGER: Inhibition of human PANC-03-27 cell growth in a cell viability assay.

U-251 = assay: cells; assay type: functional, cell-based, Homo sapiens; details: Homo sapiens, U-251;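 further: growth inhibition of human U-251 cells, read out through a cell viability assay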
Description: SANGER: Inhibition of human U251 cell growth in a cell viability assay.

RPMI-6666 = assay: cells; assay type: functional, cell-based, Homo sapiens; details: Homo sapiens, RPMI-6666
Description: SANGER: Inhibition of human RPMI-6666 cell growth in a cell viability assay.

Work on O=C(O)c1ccc(-c2c[nH]c3ncc(-c4ccccc4)cc23)cc1C1CCCC1 [GSK-650394] yielded an IC50 (NCI-H1793) of over 16000 nM, an IC50 (RD) of over 16000 nM and an IC50 (SIG-M5) of 4880 nM. For the same molecule, the IC50 (LK-2) was over 16000 nM, the IC50 (LU-165) was over 16000 nM and the IC50 (MKN-28) was 11700 nM. For the same molecule, the IC50 (DBTRG-05MG) was over 16000 nM, the IC50 (NCI-H2030) was over 16000 nM and the IC50 (A673) was over 16000 nM. It also gave an IC50 (AU565) of over 16000 nM, an IC50 (NCI-H345) of over 16000 nM and an IC50 (CAKI-1) of over 16000 nM. The IC50 (NCI-H460) was 3400 nM, the IC50 (GDM-1) was 879 nM and the IC50 (KYSE-70 cell line) was over 16000 nM. It also gave an IC50 (NCI-H650) of 6640 nM, an IC50 (C3A) of over 16000 nM and an IC50 (SW1088) of over 16000 nM. For the same molecule, the IC50 (SCC-25) was over 16000 nM, the IC50 (U2OS) was over 16000 nM and the IC50 (Daoy) was 515 nM. It also gave an IC50 (NCI-H524) of over 16000 nM, an IC50 (SCLC-21H) of over 16000 nM and an IC50 (SW13) of over 16000 nM. For the same molecule, the IC50 (SK-N-AS) was over 16000 nM, the IC50 (TE-15) was 2590 nM and the IC50 (NCI-H187) was over 16000 nM. It also gave an IC50 (SKG-IIIa) of over 16000 nM, an IC50 (SW626) of over 16000 nM and an IC50 (CAL-12T) of 2710 nM. It also gave an IC50 (L-540) of over 16000 nM, an IC50 (T-24) of over 16000 nM and an IC50 (OVCAR-5) of over 16000 nM. The IC50 (LU-99A) was over 16000 nM, the IC50 (BT-20) was over 16000 nM and the IC50 (BC1 cell line) was 2520 nM. It also gave an IC50 (ARH-77) of over 16000 nM, an IC50 (CMK) of 8250 nM and an IC50 (GCT) of over 16000 nM. For the same molecule, the IC50 (SJRH30) was over 16000 nM, the IC50 (BC-3) was 1870 nM and the IC50 (M059J) was over 16000 nM. It also gave an IC50 (SW780) of over 16000 nM, an IC50 (PANC-03-27) of over 16000 nM and an IC50 (U-251) of over 16000 nM. The IC50 (RPMI-6666) was over 16000 nM.
Work on C=C(c1ccc(C(=O)O)cc1)c1cc2c(cc1C)C(C)(C)CCC2(C)C [BEXAROTENE] yielded an IC50 (NCI-H1793) of over 8000 nM, an IC50 (RD) of over 8000 nM and an IC50 (SIG-M5) of under 31.2 nM. The IC50 (LK-2) was over 8000 nM, the IC50 (LU-165) was over 8000 nM and the IC50 (MKN-28) was over 8000 nM. For the same molecule, the IC50 (DBTRG-05MG) was over 8000 nM, the IC50 (NCI-H2030) was over 8000 nM and the IC50 (A673) was over 8000 nM. It also gave an IC50 (AU565) of over 8000 nM, an IC50 (NCI-H345) of over 8000 nM and an IC50 (CAKI-1) of over 8000 nM. The IC50 (NCI-H460) was over 8000 nM, the IC50 (GDM-1) was over 8000 nM and the IC50 (KYSE-70 cell line) was over 8000 nM. For the same molecule, the IC50 (NCI-H650) was over 8000 nM, the IC50 (C3A) was over 8000 nM and the IC50 (SW1088) was over 8000 nM. For the same molecule, the IC50 (SCC-25) was over 8000 nM, the IC50 (U2OS) was over 8000 nM and the IC50 (Daoy) was over 8000 nM. It also gave an IC50 (NCI-H524) of over 8000 nM, an IC50 (SCLC-21H) of over 8000 nM and an IC50 (SW13) of over 8000 nM. It also gave an IC50 (SK-N-AS) of over 8000 nM, an IC50 (TE-15) of over 8000 nM and an IC50 (NCI-H187) of over 8000 nM. It also gave an IC50 (SKG-IIIa) of over 8000 nM, an IC50 (SW626) of over 8000 nM and an IC50 (CAL-12T) of 3960 nM. It also gave an IC50 (L-540) of over 8000 nM, an IC50 (T-24) of over 8000 nM and an IC50 (OVCAR-5) of over 8000 nM. It also gave an IC50 (LU-99A) of over 8000 nM, an IC50 (BT-20) of over 8000 nM and an IC50 (BC1 cell line) of over 8000 nM. It also gave an IC50 (ARH-77) of over 8000 nM, an IC50 (CMK) of over 8000 nM and an IC50 (GCT) of over 8000 nM. For the same molecule, the IC50 (SJRH30) was over 8000 nM, the IC50 (BC-3) was over 8000 nM and the IC50 (M059J) was over 8000 nM. For the same molecule, the IC50 (SW780) was over 8000 nM, the IC50 (PANC-03-27) was over 8000 nM and the IC50 (U-251) was over 8000 nM. For the same molecule, the IC50 (RPMI-6666) was over 8000 nM.
COc1cccc2c1C(=O)c1c(O)c3c(c(O)c1C2=O)C[C@@](O)(C(=O)CO)C[C@@H]3O[C@H]1C[C@H](N)[C@H](O)[C@H](C)O1 [DOXORUBICIN] was tested, and the IC50 (NCI-H1793) was 901 nM, the IC50 (RD) was 180 nM and the IC50 (SIG-M5) was 25.7 nM. For the same molecule, the IC50 (LK-2) was 581 nM, the IC50 (LU-165) was 639 nM and the IC50 (MKN-28) was 31.9 nM. For the same molecule, the IC50 (DBTRG-05MG) was 67.1 nM, the IC50 (NCI-H2030) was 28.3 nM and the IC50 (A673) was 216 nM. For the same molecule, the IC50 (AU565) was 105 nM, the IC50 (NCI-H345) was over 1020 nM and the IC50 (CAKI-1) was 375 nM. The IC50 (NCI-H460) was 12.7 nM, the IC50 (GDM-1) was 160 nM and the IC50 (KYSE-70 cell line) was 225 nM. For the same molecule, the IC50 (NCI-H650) was 218 nM, the IC50 (C3A) was 416 nM and the IC50 (SW1088) was over 1020 nM. The IC50 (SCC-25) was 154 nM, the IC50 (U2OS) was over 1020 nM and the IC50 (Daoy) was 8.07 nM. For the same molecule, the IC50 (NCI-H524) was over 1020 nM, the IC50 (SCLC-21H) was over 1020 nM and the IC50 (SW13) was 115 nM. For the same molecule, the IC50 (SK-N-AS) was over 1020 nM, the IC50 (TE-15) was 24.1 nM and the IC50 (NCI-H187) was 493 nM. The IC50 (SKG-IIIa) was 311 nM, the IC50 (SW626) was 112 nM and the IC50 (CAL-12T) was 20.6 nM. For the same molecule, the IC50 (L-540) was 213 nM, the IC50 (T-24) was 245 nM and the IC50 (OVCAR-5) was 117 nM. For the same molecule, the IC50 (LU-99A) was 147 nM, the IC50 (BT-20) was over 1020 nM and the IC50 (BC1 cell line) was 86.8 nM. It also gave an IC50 (ARH-77) of 110 nM, an IC50 (CMK) of 77.4 nM and an IC50 (GCT) of 861 nM. For the same molecule, the IC50 (SJRH30) was 173 nM, the IC50 (BC-3) was 166 nM and the IC50 (M059J) was 31.4 nM. It also gave an IC50 (SW780) of over 1020 nM, an IC50 (PANC-03-27) of 28.2 nM and an IC50 (U-251) of 64.9 nM. The IC50 (RPMI-6666) was 66 nM.
